Experimental data taken from patent US11572359B2, “PARP/PI3K double-target inhibit containing pyridopyrimidine structure” (CHINA PHARMACEUTICAL UNIVERSITY, priority 2017, dated 2023).
Where two headings read alike, the source gives them in different places.

What was measured:
[1] = tested on: Human Breast Cancer MDA-MB-468 Cell Nude Mice Xenograft; assay: Growth of human breast cancer MDA-MB-468 cell nude mice xenograft; assay type: in vivo; details: for Tumor Volumes / Tumor weights: abdominal cavity, once every 2 days; for Anti-tumor effect compared with the combination group olaparib (50 mg/kg)/BKM120 (27.5 mg/kg) (in words): p<0.05; for Inhibition of the growth of the MDA-MB-468 nude mice xenografts (in words) / Inhibition rate compared with positive drugs olaparib and BKM120 (in words): I-1 50 mg/kg, 1-3 50 mg/kg, olaparib 50 mg/kg/BKM120 27.5 mg/kg; for Tumor weights: after 34 days, in g (unit assumed)
Description: Preparing an MDA-MB-468 cell line in a logarithmic growth phase into a 2×10^7/mL cell suspension under sterile conditions, and inoculating 0.1 mL of the cell suspension under the skin of the right axilla of each nude mouse. Measuring the diameter of a nude mice xenograft with a vernier caliper, and randomly dividing the animals into groups after the tumors grew to about 100 mm^3. Dynamically observing an anti-tumor effect of the tested animals using a method of measuring the tumor diameter, wherein the frequency of measurements of the tumor diameter is once every 2 days, and the administration volume is 0.4 mL/20 g. After 34 days, killing the mice and surgically removing and weighing tumor pieces. The formula for calculating tumor volume (TV) is: TV=½×a×b^2, wherein a and b represent the length and the width respectively.

[2] = tested on: MDA-MB-468 (human breast cancer cells); assay: Tumor cell proliferation inhibition (SRB, 72 hours), MDA-MB-468; assay type: cell-based
Description: (§1) Inoculating HCT116 (human colon cancer cells), HCC1937 (human breast cancer cells), MDA-MB-231 (human breast cancer cells) and MDA-MB-468 (human breast cancer cells) in a logarithmic growth phase with a certain quantity in a 96-well plate (200 μL/well) for culture for 24 hours so as to adhere to walls and then adding drugs. Arranging 3 duplicate wells for each drug concentration, and setting corresponding zero-cut holes and blank controls. After 72 hours of drug action, adding 50% TCA (50 μL/well) into adherent cells, fixing at 4° C. for 1 hour, pouring a fixing solution, washing for 5 times with distilled water, and naturally drying. Adding 100 μL of 4 mg/mL SRB into each well, staining at a room temperature for 15 minutes, discarding, washing for 5 times with 1% glacial acetic acid, and naturally drying. Finally, adding 150 μL of a 10 mM Tris solution into each well, shaking to be uniform, and measuring OD values at a wavelength of 565 nm using a wavelength-adjustable microplate reader (VERSAmax™, Molecular Device).

[3] = target: PI3Kα (Homo sapiens, UniProt P42336); assay: PI3Kα inhibitory activity at the enzyme level (ADP detection by luciferase method); assay type: biochemical; details: for inhibition at 0.1 µM: 100 nM compound, read-out: Inhibition rate on PI3Kα (100 nM)
Description: Experimental method for PI3Kα inhibitory activity: simultaneously adding 40 mM Tris, pH 7.4, 10 mM MgCl2, 0.1 mg/ml BSA, 1 mM DTT, 10 μM ATP, PI3Kα kinase and a kinase substrate into different concentrations of compounds to be sieved to form a 50 μL reaction system, after reaction at 30° C. for 40 minutes, detecting an ADP content in the system through a luciferase method, and then after reaction for 5 minutes, detecting a chemiluminescence signal on an MD-SpectraMax M5 multi-function microplate reader, wherein the intensity of a value of the chemiluminescence signal is in direct proportion to […]. The detected value of the chemiluminescence signal is substituted into the following formula: Enzyme activity percentage (%)=(OD value administration hole-OD value background)/(OD value control hole−OD value background)×100%
(§2) Method for determining IC50 of PARP-1 and PI3Kα: diluting a drug concentration according to a three-fold concentration gradient, and detecting two duplicate wells at each concentration; taking the drug concentration as the abscissa and the percentage of enzyme activity corresponding to each concentration as the ordinate, and calculating to obtain inhibition IC50 values of all tested compounds by using Graphpad Prism5 for nonlinear regression.

[4] = target: PARP-1 (Homo sapiens, UniProt P09874); assay: PARP-1 inhibitory activity at the enzyme level (histone-coated plate, chemiluminescence); assay type: biochemical; details: for inhibition at 0.01 µM: 10 nM compound, read-out: Inhibition rate on PARP-1 (10 nM)
Description: Experimental method for PARP-1 inhibitory activity: taking out a 96-well plate pre-coated with histones, and adding a following enzyme reaction system and inhibitors of different concentrations into each well, including: 50 μL of a reaction buffer solution (Tris*HCl, pH 8.0), NAD^+, biotin-labeled activated DNA, PARP-1 enzyme, and an inhibitor; after reaction at a room temperature for 1 hour, adding 50 uL of avidin-labeled HRP into each well for reaction for 30 minutes; and then adding 100 μL of an HRP substrate, and detecting a chemiluminescence value on a SpectraMax M instrument. The percentage of enzyme activity is calculated by the following formula: Enzyme activity percentage (%)=(OD value administration hole-OD value background)/(OD value control hole−OD value background)×100%
as §2

[5] = tested on: HCC1937 (human breast cancer cells); assay: Tumor cell proliferation inhibition (SRB, 72 hours), HCC1937; assay type: cell-based
Description: as §1

[6] = tested on: HCT116 (human colon cancer cells); assay: Tumor cell proliferation inhibition (SRB, 72 hours), HCT116; assay type: cell-based
Description: as §1

[7] = tested on: MDA-MB-231 (human breast cancer cells); assay: Tumor cell proliferation inhibition (SRB, 72 hours), MDA-MB-231; assay type: cell-based
Description: as §1

[8] = 12 days, 50 mg/kg (I-1: medium)
[9] = 18 days, 50 mg/kg (I-1: medium)
[10] = 24 days, 50 mg/kg (I-1: medium)
[11] = 30 days, 50 mg/kg (I-1: medium)
[12] = 34 days, 50 mg/kg (I-1: medium)

Sequence of PI3Kα (P42336 whole entry): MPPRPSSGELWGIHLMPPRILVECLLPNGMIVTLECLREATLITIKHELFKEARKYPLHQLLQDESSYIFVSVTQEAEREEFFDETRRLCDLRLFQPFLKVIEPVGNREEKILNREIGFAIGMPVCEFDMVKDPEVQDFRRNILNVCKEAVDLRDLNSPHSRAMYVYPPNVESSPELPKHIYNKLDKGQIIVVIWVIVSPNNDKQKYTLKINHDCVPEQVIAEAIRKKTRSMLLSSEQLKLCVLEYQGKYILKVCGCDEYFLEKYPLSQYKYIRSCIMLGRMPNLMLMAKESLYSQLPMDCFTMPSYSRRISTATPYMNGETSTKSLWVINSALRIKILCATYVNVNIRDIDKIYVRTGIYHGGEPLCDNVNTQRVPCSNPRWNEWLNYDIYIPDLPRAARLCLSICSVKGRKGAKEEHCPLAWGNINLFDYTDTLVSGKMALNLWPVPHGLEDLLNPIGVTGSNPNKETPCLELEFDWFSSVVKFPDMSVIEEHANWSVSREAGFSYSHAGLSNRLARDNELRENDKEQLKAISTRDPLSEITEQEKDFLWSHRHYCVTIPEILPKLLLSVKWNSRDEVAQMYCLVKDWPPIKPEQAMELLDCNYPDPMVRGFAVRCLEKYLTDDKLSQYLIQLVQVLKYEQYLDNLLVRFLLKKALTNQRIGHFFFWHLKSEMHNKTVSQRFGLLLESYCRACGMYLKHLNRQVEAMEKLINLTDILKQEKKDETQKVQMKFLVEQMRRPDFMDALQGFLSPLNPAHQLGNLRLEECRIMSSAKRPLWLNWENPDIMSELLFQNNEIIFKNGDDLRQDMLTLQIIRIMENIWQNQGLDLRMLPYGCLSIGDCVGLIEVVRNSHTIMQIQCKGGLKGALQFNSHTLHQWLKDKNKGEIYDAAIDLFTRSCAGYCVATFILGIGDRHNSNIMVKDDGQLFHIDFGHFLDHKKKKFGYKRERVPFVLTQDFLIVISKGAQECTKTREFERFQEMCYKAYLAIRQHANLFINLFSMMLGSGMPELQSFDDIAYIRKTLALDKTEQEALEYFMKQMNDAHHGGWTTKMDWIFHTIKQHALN
Sequence of PI3Kα (P27986 whole entry partner): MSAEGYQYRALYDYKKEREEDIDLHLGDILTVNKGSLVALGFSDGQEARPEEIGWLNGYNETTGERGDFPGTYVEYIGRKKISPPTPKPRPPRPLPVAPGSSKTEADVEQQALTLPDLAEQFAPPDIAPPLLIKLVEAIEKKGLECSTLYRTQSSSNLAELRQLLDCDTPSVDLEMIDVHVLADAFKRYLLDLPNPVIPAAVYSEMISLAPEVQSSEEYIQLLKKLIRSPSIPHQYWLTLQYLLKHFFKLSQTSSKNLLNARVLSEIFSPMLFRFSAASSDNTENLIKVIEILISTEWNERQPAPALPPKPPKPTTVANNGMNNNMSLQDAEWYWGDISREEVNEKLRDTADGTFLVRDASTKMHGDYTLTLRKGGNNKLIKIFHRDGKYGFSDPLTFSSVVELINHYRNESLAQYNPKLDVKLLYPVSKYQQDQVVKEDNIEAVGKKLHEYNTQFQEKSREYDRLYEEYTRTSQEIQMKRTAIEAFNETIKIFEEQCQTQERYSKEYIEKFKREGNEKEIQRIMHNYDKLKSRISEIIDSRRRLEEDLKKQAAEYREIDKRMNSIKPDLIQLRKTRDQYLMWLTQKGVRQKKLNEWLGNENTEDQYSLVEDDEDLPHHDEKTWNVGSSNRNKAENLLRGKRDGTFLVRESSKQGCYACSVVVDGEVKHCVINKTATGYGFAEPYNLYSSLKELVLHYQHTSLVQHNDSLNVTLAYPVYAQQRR
Sequence of PARP-1 (P09874 whole entry): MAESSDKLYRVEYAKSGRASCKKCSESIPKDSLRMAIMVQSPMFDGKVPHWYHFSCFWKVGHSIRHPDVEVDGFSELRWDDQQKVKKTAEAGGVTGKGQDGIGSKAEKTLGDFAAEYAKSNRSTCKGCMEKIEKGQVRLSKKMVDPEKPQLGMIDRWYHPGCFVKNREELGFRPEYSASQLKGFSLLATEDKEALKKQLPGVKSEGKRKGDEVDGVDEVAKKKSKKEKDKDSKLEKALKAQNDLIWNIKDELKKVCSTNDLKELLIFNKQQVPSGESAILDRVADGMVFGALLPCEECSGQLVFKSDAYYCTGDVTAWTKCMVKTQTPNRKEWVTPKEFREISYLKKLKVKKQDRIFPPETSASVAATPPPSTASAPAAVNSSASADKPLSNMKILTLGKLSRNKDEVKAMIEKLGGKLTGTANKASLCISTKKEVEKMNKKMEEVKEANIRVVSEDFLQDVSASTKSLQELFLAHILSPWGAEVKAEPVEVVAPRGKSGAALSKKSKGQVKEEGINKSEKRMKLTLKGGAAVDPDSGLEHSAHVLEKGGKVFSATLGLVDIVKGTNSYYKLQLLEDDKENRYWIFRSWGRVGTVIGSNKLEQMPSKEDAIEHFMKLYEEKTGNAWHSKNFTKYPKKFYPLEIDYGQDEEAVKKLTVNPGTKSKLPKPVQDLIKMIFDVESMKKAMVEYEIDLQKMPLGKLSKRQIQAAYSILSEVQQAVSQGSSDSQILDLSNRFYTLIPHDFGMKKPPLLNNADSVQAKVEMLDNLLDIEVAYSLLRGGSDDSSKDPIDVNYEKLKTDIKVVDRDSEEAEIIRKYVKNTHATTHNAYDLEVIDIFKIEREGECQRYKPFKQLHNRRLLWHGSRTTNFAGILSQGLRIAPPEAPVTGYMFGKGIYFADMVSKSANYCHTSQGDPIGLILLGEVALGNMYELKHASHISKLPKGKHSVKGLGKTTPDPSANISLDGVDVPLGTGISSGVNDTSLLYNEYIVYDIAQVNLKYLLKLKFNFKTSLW

Compound | IC50 [2] [nM] | IC50 ([2]; Homo sapiens, MDA-MB-468, 72 h) [nM] | IC50 [3] [nM] | inhibition at 0.1 µM [3] [%] | IC50 [4] [nM] | inhibition at 0.01 µM [4] [%] | IC50 ([6]; Homo sapiens, HCT-116, 72 h) [nM] | IC50 ([5]; Homo sapiens, HCC1937, 72 h) [nM] | IC50 ([7]; Homo sapiens, MDA-MB-231, 72 h) [nM] | Tumor Volumes ([1]; 0 day, 50 mg/kg (I-1: medium)) [mm^3] | Anti-tumor effect compared with the combination group olaparib (50 mg/kg)/BKM120 (27.5 mg/kg) (in words) ([1]; 50 mg/kg) | Tumor Volumes ([1]; 6 days, 50 mg/kg (I-1: medium)) [mm^3] | Tumor Volumes [1, 8] [mm^3] | Tumor Volumes [1, 9] [mm^3] | Tumor Volumes [1, 10] [mm^3] | Tumor Volumes [1, 11] [mm^3] | Tumor Volumes [1, 12] [mm^3] | Inhibition of the growth of the MDA-MB-468 nude mice xenografts (in words) [1] | Inhibition rate compared with positive drugs olaparib and BKM120 (in words) [1] | Tumor weights ([1]; 50 mg/kg (I-1: medium)) | other results
Nc1ncc(-c2nc3c(c(N4CCOCC4)n2)CCN(C(=O)c2cc(Cc4n[nH]c(=O)c5ccccc45)ccc2F)C3)cn1 [I-1, 4-(3-(2-(2-aminopyrimidin-5-yl)-4-morpholinyl-5,6,7,8-tetrahydropyrido [3,4-d]pyrimidin-7-formyl)-4-fluorobenzyl) phthalazin-1(2H)-one] | 909 | < 1000 | 69 | 66 | 3.75 | 81 |  |  |  | 94.95 | obviously superior | 136.45 | 222.15 | 301.78 | 399.10 | 489.89 | 551.70 | significantly inhibit the growth | higher | 0.54 | Tumor Volumes ([1]; 0 day, high, 100 mg/kg): 93.30 mm^3; Tumor Volumes ([1]; 0 day, low, 25 mg/kg): 96.16 mm^3; Dose dependence of tumor growth inhibition (in words) ([1]; 25, 50, 100 mg/kg): dose-dependent manner; Tumor Volumes ([1]; 6 days, high, 100 mg/kg): 122.80 mm^3; Tumor Volumes ([1]; 6 days, low, 25 mg/kg): 205.61 mm^3; Tumor Volumes ([1]; 12 days, high, 100 mg/kg): 145.60 mm^3; Tumor Volumes ([1]; 12 days, low, 25 mg/kg): 303.37 mm^3; Tumor Volumes ([1]; 18 days, high, 100 mg/kg): 186.00 mm^3; Tumor Volumes ([1]; 18 days, low, 25 mg/kg): 401.23 mm^3; Tumor Volumes ([1]; 24 days, high, 100 mg/kg): 209.30 mm^3; Tumor Volumes ([1]; 24 days, low, 25 mg/kg): 555.25 mm^3; Tumor Volumes ([1]; 30 days, high, 100 mg/kg): 234.10 mm^3; Tumor Volumes ([1]; 30 days, low, 25 mg/kg): 707.38 mm^3; Tumor Volumes ([1]; 34 days, high, 100 mg/kg): 250.00 mm^3; Tumor Volumes ([1]; 34 days, low, 25 mg/kg): 808.40 mm^3; Tumor weights ([1]; high, 100 mg/kg): 0.34; Tumor weights ([1]; low, 25 mg/kg): 0.85; IC50 [5]: 81 nM
O=C(c1cc(Cc2n[nH]c(=O)c3ccccc23)ccc1F)N1CCc2c(nc(-c3cccc4[nH]ncc34)nc2N2CCOCC2)C1 [I-8, 4-(3-(2-(1H-indazole-4-yl)-4-morpholinyl-5,6,7,8-tetrahydropyrido[3,4-d]pyrimidin-7-formyl)-4-fluorobenzyl)phthalazin-1(2H)-one] |  | 1150 |  | 42 |  | 91 | 536 | 482 | 708 |  |  |  |  |  |  |  |  |  |  |  | 
C[C@@H]1CN(c2nc(-c3cnc(N)nc3)nc3c2CCN(C(=O)c2cc(Cc4n[nH]c(=O)c5ccccc45)ccc2F)C3)C[C@H](C)O1 [I-12, 4-(3-(2-(2-aminopyrimidin-5-yl)-4-((2S,6R)-2,6-dimethylmorpholinyl)-5,6,7,8-tetrahydropyrido [3,4-d]pyrimidin-7-formyl)-4-fluorobenzyl) phthalazin-1(2H)-one] |  | 1580 | 92.6 | 40 | 3.87 | 76 | 1010 | 784 | 1130 |  |  |  |  |  |  |  |  |  |  |  | melting point: 204 to 206 °C

The next lines start with results.

IC50 [2] [nM] | IC50 ([2]; Homo sapiens, MDA-MB-468, 72 h) [nM] | IC50 [3] [nM] | inhibition at 0.1 µM [3] [%] | IC50 [4] [nM] | inhibition at 0.01 µM [4] [%] | IC50 ([6]; Homo sapiens, HCT-116, 72 h) [nM] | IC50 ([5]; Homo sapiens, HCC1937, 72 h) [nM] | IC50 ([7]; Homo sapiens, MDA-MB-231, 72 h) [nM] | Compound | Tumor Volumes ([1]; 0 day, 50 mg/kg (I-1: medium)) [mm^3] | Anti-tumor effect compared with the combination group olaparib (50 mg/kg)/BKM120 (27.5 mg/kg) (in words) ([1]; 50 mg/kg) | Tumor Volumes ([1]; 6 days, 50 mg/kg (I-1: medium)) [mm^3] | Tumor Volumes [1, 8] [mm^3] | Tumor Volumes [1, 9] [mm^3] | Tumor Volumes [1, 10] [mm^3] | Tumor Volumes [1, 11] [mm^3] | Tumor Volumes [1, 12] [mm^3] | Inhibition of the growth of the MDA-MB-468 nude mice xenografts (in words) [1] | Inhibition rate compared with positive drugs olaparib and BKM120 (in words) [1] | Tumor weights ([1]; 50 mg/kg (I-1: medium)) | other results
 | 1340 | 130 | 66 | 0.395 | 93 | 217 | 121 | 816 | Nc1ccc(-c2nc3c(c(N4CCOCC4)n2)CCN(C(=O)c2cc(Cc4n[nH]c(=O)c5ccccc45)ccc2F)C3)cn1 [I-2, 4-(3-(2-(6-aminopyridin-3-yl)-4-morpholinyl-5,6,7,8-tetrahydropyrido[3,4-d]pyrimidin-7-formyl)-4-fluorobenzyl)phthalazin-1(2H)-one] |  |  |  |  |  |  |  |  |  |  |  | 
266 |  | 194 | 34 | 4.9 | 55 | < 1000 | < 1000 |  | Nc1cc(C(F)(F)F)c(-c2nc3c(c(N4CCOCC4)n2)CCN(C(=O)c2cc(Cc4n[nH]c(=O)c5ccccc45)ccc2F)C3)cn1 [I-3, 4-(3-(2-(6-amino-4-(trifluoromethyl)pyridin-3-yl)-4-morpholinyl-5,6,7,8-tetrahydropyrido [3,4-d]pyrimidin-7-formyl)-4-fluorobenzyl)phthalazin-1(2H)-one] | 93.00 | obviously superior | 142.00 | 190.90 | 216.60 | 241.50 | 280.80 | 310.10 | significantly inhibit the growth | higher | 0.44 | Anti-tumor effect, ranking among the groups (in words) ([1]; 50 mg/kg): optimal; IC50 [6]: 775 nM; IC50 [5]: 504 nM; IC50 [7]: 155 nM
